Reference: US20210163404A1, “NOVEL UREA COMPOUNDS AND BIOISOSTERES THEREOF AND THEIR USE FOR TREATING INFLAMMATION AND INFLAMMATION-RELATED PATHOLOGIES” (UNIVERSITÉ LAVAL, priority 2017, published 2021)

Columns and labels:
[1] = tested on: HDFn neonatal dermal fibroblast cell line; test: Antiproliferative activity (NCI procedure, sulforhodamine B), HDFn; format: cell-based, human; details: Homo sapiens, Fibroblast, unit inferred, tested 781 nM to 100 μM, 48 h
Method: (§1) The antiproliferative activity of compounds 3a-b, 4a-e, 5a-e and 6a-e was subsequently evaluated using the human HT-29 colon adenocarcinoma and the A549 adenocarcinoma alveolar epithelial cancer cell lines, the HaCaT spontaneously transformed aneuploid immortal keratinocyte cell line and the HDFn neonatal dermal fibroblast cell line (Table 2). Cell growth inhibition was assessed according to the NCI/NIH Developmental Therapeutics Program.
(§2) The antiproliferative activity assay of all compounds was assessed using the procedure recommended by the National Cancer Institute for its drug screening program with minor modifications. Briefly, 96-well microtiter plates were seeded with 75 μL of a suspension of either HaCaT (5×10^3), HT-29 (3.0×10^3), A549 (3.0×10^3) or HDFn (3×10^3) cells per well in DMEM and incubated for 24 h at 37° C. in a moisture-saturated atmosphere containing 5% CO2. Compounds freshly solubilized in DMSO (40 mM) were diluted in fresh DMEM, and 75 μL aliquots containing serially diluted concentrations of the compound were added. Final compound concentrations ranged from 100 μM to 781 nM. DMSO was maintained at a concentration of <0.5% (v/v) to avoid any related cytotoxicity. Plates were subsequently incubated for 48 h. Cell growth was then stopped by the addition of cold trichloroacetic acid to the wells (10% w/v, final concentration), followed by a 1 h incubation period at 4° C. The plates were washed 4-times with water. A sulforhodamine B solution (75 μL; 0.1% w/v) in acetic acid (1%) was subsequently added to each well and the plates incubated over a 15 min period while at room temperature. After staining, any unbound dye was removed by washing 4-times with an acetic acid solution (1%). Bound dye was solubilized in 20 mM Tris base and the absorbance was measured at an optimal wavelength (530-568 nm) using a μQuant® Universal microplate spectrophotometer (BioTek, Winooski, Vt.). The measurements for treated cells were compared with measurements from control cell plates fixed on treatment day and the percentage of cell growth inhibition was calculated for each drug. The experiments were performed at least twice in triplicate. The assays were considered valid when the coefficient of variation for a given set of conditions and within the same experiment was <10%.

[2] = tested on: HaCaT keratinocyte cell line; test: Antiproliferative activity (NCI procedure, sulforhodamine B), HaCaT; format: cell-based, human; details: Homo sapiens, HaCaT, unit inferred, tested 781 nM to 100 μM, 48 h
Method: as §1, §2

[3] = tested on: HT-29 colon adenocarcinoma cells; test: Antiproliferative activity (NCI procedure, sulforhodamine B), HT-29; format: cell-based, human; details: Homo sapiens, HT-29, unit inferred, tested 781 nM to 100 μM, 48 h
Method: as §1, §2

[4] = tested on: A549 adenocarcinoma alveolar epithelial cancer cells; test: Antiproliferative activity (NCI procedure, sulforhodamine B), A549; format: cell-based, human; details: Homo sapiens, A549, unit inferred, tested 781 nM to 100 μM, 48 h
Method: as §1, §2

HaCaT cells = test: Cell cycle analysis by flow cytometry; format: cell-based, human; details: 10 μM, 24 h
Method: The effect of compounds 3a-b, 4e, 5b-c, 6a and 6e on cell cycle progression was subsequently assessed using a flow cytometer in accordance with established experimental protocols to evaluate any potential drug toxicity at specific phases of the cell cycle (Table 3).
HaCaT cells (2.5×10^5) were incubated with compounds 3a-b, 4e, 5b-c, 6a and 6e and curcumin (10 μM) over a period of 24 h. The cells were subsequently trypsinized, washed with PBS, resuspended in PBS (250 μL), fixed by the addition of ice-cold EtOH (750 μL) under agitation and stored at −20° C. until analysis. Prior to FACS analysis, cells were washed with PBS and resuspended in PBS (500 μL) containing 4′,6′-diamidino-2-phenylindole (DAPI) (2 μg/mL). The cell cycle was analyzed using an LSR II flow cytometer (BD Biosciences, Franklin Lakes, N.J.).

Row | SMILES | IC50 ([1]; Table 8) [µM] | melting point [°C] | IC50 ([2]; Table 8) [µM] | IC50 ([3]; Table 8) [µM] | IC50 ([4]; Table 8) [µM] | IC50 ([1]; Table 5) [µM] | IC50 ([2]; Table 5) [µM] | IC50 ([3]; Table 5) [µM] | IC50 ([4]; Table 5) [µM] | other results
1 | CC(C)(C)c1ccc(NC(=S)NCC2CCC2)cc1 [Compound 96] | > 100 | 129 to 146 | > 100 | 44 | 23.3 |  |  |  |  | 
2 | CCCNC(=O)Nc1ccc(C(C)(C)C)cc1 [Compound 9] |  | 147 to 151 |  |  |  | 10.5 | > 100 | 54.9 | 67.1 | 
3 | CC(C)(C)c1cccc(NC(=S)NCC2CCC2)c1 [Compound 90] | 18.2 | 105 to 111 | 34.3 | 20.2 | 17.5 |  |  |  |  | 
4 | CCCNC(=O)Nc1ccc(C2CCCCC2)cc1 [Compound 15] |  | 166 to 168 |  |  |  | 59.1 | > 100 | > 100 | > 100 | 
5 | CCNC(=O)Nc1ccc(C(C)(C)C)cc1 [tBEU, reference compound] |  |  |  |  |  |  |  |  |  | Cell cycle progression G0-G1 (HaCaT cells): 55.5; Cell cycle progression G2-M (HaCaT cells): 19.1; Cell cycle progression S (HaCaT cells): 25.3
6 | O=C(Nc1cccc(C2CCCCC2)c1)NC1CC1 [Compound 67] |  | 138 to 144 |  |  |  |  |  |  |  | IC50 ([1]; Table 6): 25 µM; IC50 ([2]; Table 6): 17 µM; IC50 ([3]; Table 6): 26 µM; IC50 ([4]; Table 6): 37 µM
7 | CC(C)NC(=O)Nc1cccc(C2CCCCC2)c1 [Compound 16] |  | 178 to 181 |  |  |  | 30.5 | > 100 | > 100 | > 100 | 
8 | CC(C)(C)c1ccc(NC(=S)NC2CC2)cc1 [Compound 95] | 60 | 119 to 143 | 94.5 | 64.4 | 57.9 |  |  |  |  | 
9 | S=C(Nc1cccc(C2CCCCC2)c1)NC1CC1 [Compound 105] | 14.7 | 122 to 128 | 16.3 | 12.7 | 15.9 |  |  |  |  | 
10 | CC(C)(C)NC(=O)Nc1ccc(C(C)(C)C)cc1 [Compound 8] |  | 167 to 174 |  |  |  | 14.5 | 55 | 35.6 | 34.2 | 
11 | CC(C)(C)NC(=O)Nc1cccc(I)c1 [Compound 5] |  | 189 to 193 |  |  |  | 17.4 | > 100 | 81.3 | 61.8 | 
12 | CCCNC(=O)Nc1ccc(I)cc1 [Compound 3] |  | 197 to 199 |  |  |  | 81.3 | 94.9 | 51.9 | 82.7 | 
13 | CC(C)(C)c1ccc(NC(=S)NC2CCCC2)cc1 [Compound 97] | 22.6 | 142 to 154 | 40 | 28.8 | 26.2 |  |  |  |  | 
14 | CC(C)(C)NC(=O)Nc1cccc(C(C)(C)C)c1 [Compound 11] |  | 161 to 170 |  |  |  | 13.1 | 46.5 | 34.9 | 36.7 | 
15 | S=C(NCC1CCC1)Nc1ccc(C2CCCCC2)cc1 [Compound 88] | 15.7 | 144 to 152 | 32.5 | 20.4 | 15.3 |  |  |  |  | 
16 | S=C(NCC1CCC1)Nc1ccc(I)cc1 [Compound 92] | 24.2 | 98 to 108 | 48.2 | 27.2 | 26.2 |  |  |  |  | 
17 | CC(C)(C)NC(=O)Nc1ccc(I)cc1 [Compound 2] |  | 179 to 199 |  |  |  | 27.1 | 44.7 | 32.9 | 37.1 | 
18 | S=C(Nc1ccc(C2CCCCC2)cc1)NC1CC1 [Compound 93] | 84 | 157 to 165 | 84.7 | 30.8 | 20.8 |  |  |  |  | 
19 | CCCNC(=O)Nc1cccc(C2CCCCC2)c1 [Compound 18] |  | 131 to 134 |  |  |  | 23 | 32 | 24.1 | 21 | 
20 | CCNC(=S)Nc1ccc(C(C)(C)C)cc1 [Compound 94] | 94 | 109 to 115 | > 100 | 92 | 71.1 |  |  |  |  | 
21 | S=C(Nc1ccc(I)cc1)NC1CC1 [Compound 101] | > 100 | 166 to 180 | > 100 | 63.3 | 65.1 |  |  |  |  | 
22 | CC(C)NC(=O)Nc1cccc(C(C)(C)C)c1 [Compound 10] |  | 146 to 149 |  |  |  | 92.4 | > 100 | 85.2 | 96.8 | 
23 | CC(C)NC(=O)Nc1ccc(C(C)(C)C)cc1 [Compound 7] |  | 152 to 155 |  |  |  | 57.4 | > 100 | 74.2 | 83.2 | 
24 | CC(C)(C)c1cccc(NC(=S)NC2CC2)c1 [Compound 100] | > 100 | 125 to 140 | > 100 | 75.7 | 70 |  |  |  |  | 
25 | CCNC(=O)Nc1cccc(C2CCCCC2)c1 [Compound 66] |  | 141 to 144 |  |  |  |  |  |  |  | IC50 ([1]; Table 6): 31 µM; IC50 ([2]; Table 6): 37 µM; IC50 ([3]; Table 6): 31 µM; IC50 ([4]; Table 6): 58 µM
